No end group written: not given here.
Key:
LDL [1] = assay: LDL-adsorbing ratio of peptide-bonded resin in LDL solution (decrease of free cholesterol); assay type: binding
LDL [2] = assay: Staining of peptide-bonded resin with biotinylated LDL in plasma (ABC method); assay type: binding; set-up: key: the peptide-bonded resins which were stained are indicated with "+ (plus)"; the peptide-bonded resins which were not stained are indicated with "- (minus)"
Experimental: With respect to the adsorbent comprising the water-insoluble carrier having bonded thereto the peptide, as a method for evaluating the binding ability (affinity) of the adsorbent for an LDL, there can be mentioned a method in which, after causing an LDL to be adsorbed on the adsorbent, the adsorbent having the LDL adsorbed thereon is subjected to staining (avidin-biotin complex method, that is, ABC method). Specifically, a biotinylated LDL is added to plasma, and the adsorbent is immersed in the plasma for a predetermined period of time. Then, the adsorbent is taken out of the plasma, and washed. Subsequently, the adsorbent is immersed in a horseradish peroxidase-labeled streptoavidin solution, and a solution of 3,3'-diamino benzidine, which is a substrate for the above-mentioned enzyme (horseradish peroxidase), is added thereto, thereby staining the adsorbent. The binding ability of the adsorbent for LDL is evaluated from the degree of the staining. With respect to methods for evaluating a binding ability for LDL, reference can be made to, for example, the following literature: S. M. Hsu, L. Raine, H. Fanger, J. Histchem. Cytochem., 29, 577 (1981); and H. Towbin, T. Staehelin, J. Gordon, Proc. Natl. Acad. Sci. U.S.A., 76, 4350 (1979).
The ability of each of the peptides to bind thereto an LDL was evaluated as follows. To a blood sample obtained from a healthy person was added a 3.8% aqueous solution of sodium citrate to thereby obtain a mixture. The obtained mixture was centrifuged to separate the blood sample into a blood cells component and a plasma component.
On the other hand, each of the above-mentioned polystyrene resins having bonded thereto the above-synthesized peptides was individually taken out from the synthesis reaction system and packed in a column having a filter (manufactured and sold by Bio-Rad laboratories, U.S.A.). Subsequently, the plasma-LDL mixture prepared above was added to the column, and the column was allowed to stand at room temperature for 1 hour. Then, the column was washed with a physiological saline containing 0.1% Tween 20 and sodium phosphate. After the washing, 1 ml of a horseradish peroxidase-labeled streptoavidine (0.2 ug/ml) solution containing 10% Block Ace (manufacturedand sold by Dainippon Pharmaceutical Co., Ltd., Japan) was added to the column, and the column was allowed to stand at room temperature for 30 minutes. Then, 1 ml of a 3,3'-diaminobenzidine tetrahydrochloride ([…]) solution containing 0.005% hydrogen peroxide was added to the column (by the addition of this solution, when a peptide-bonded resin contained in the column has the LDL bonded thereto, the resin is stained to assume brown color).
Results are shown in Table 1, wherein the peptide-bonded resins which were stained are indicated with "+ (plus)" and the peptide-bonded resins which were not stained are indicated with "- (minus)".
The ability of each of the peptides to bind thereto an LDL was evaluated in substantially the same manner as in Example 1.

[3] = Table 3, peptide-bonded resin 85 mg dry, 1 ml LDL solution 50 μg/ml in PBS
[4] = Table 4, peptide-bonded resin 85 mg dry, 1 ml LDL solution 50 μg/ml in PBS
[5] = Table 6, peptide-bonded resin, same manner as Example 4
[6] = Table 5, D-form and L-form peptides on resin, same manner as Example 4
[7] = Table 2, peptide-bonded TG resin, same manner as Example 1
[8] = Table 1, peptide-bonded TG resin, room temperature 1 hour, peroxidase-streptoavidin/3,3'-diaminobenzidine

## WAWRRGGGGG (not fully specified) [peptide bonded to TG polystyrene resin]
LDL [1]; [3]
  LDL-adsorbing ratio (%): 49.8%

## WWR
LDL [1]; [4]
  LDL-adsorbing ratio (%): 32.0%
LDL [1]; Table 5, D-form and L-form peptides on resin, same manner as Example 4, listed as WWR (L-form)
  LDL-adsorbing ratio (%): 33.8%

## WFWRR (not fully specified) [peptide bonded to TG polystyrene resin]
LDL [1]; [4]
  LDL-adsorbing ratio (%): 49.0%
LDL [1]; Table 5, D-form and L-form peptides on resin, same manner as Example 4, listed as WFWRR (L-form)
  LDL-adsorbing ratio (%): 39.1%

## WAAAR (not fully specified) [peptide bonded to TG polystyrene resin]
LDL [1]; [5]
  LDL-adsorbing ratio (%): 39.3%

## WAR
LDL [1]; [5]
  LDL-adsorbing ratio (%): 32.3%

## WAAR (not fully specified) [peptide bonded to TG polystyrene resin]
LDL [1]; [5]
  LDL-adsorbing ratio (%): 36.3%

## LFLMR (not fully specified) [peptide bonded to TG polystyrene resin]
LDL [1]; [3]
  LDL-adsorbing ratio (%): 39.3%

## WWWR [WWWR (L-form)] (also: L-form) [peptide bonded to TG polystyrene resin]
LDL [1]; [6]
  LDL-adsorbing ratio (%): 42.2%

## WAWEEGGGGG (not fully specified) [comparative peptide bonded to TG polystyrene resin, electric charge 0 or less, reference compound]
LDL [1]; [3]
  LDL-adsorbing ratio (%): 4.3%

## WFWKK (not fully specified) [peptide bonded to TG polystyrene resin]
LDL [1]; [4]
  LDL-adsorbing ratio (%): 43.0%

## WFWRR [WFWRR (D-form)]
LDL [1]; [6]
  LDL-adsorbing ratio (%): 38.3%

## FFFFFFGGGGG [comparative peptide bonded to TG polystyrene resin, electric charge 0 or less, reference compound]
LDL [1]; [3]
  LDL-adsorbing ratio (%): 2.6%

## WWR [WWR (D-form)]
LDL [1]; [6]
  LDL-adsorbing ratio (%): 41.6%

## WWWR [WWWR (D-form)]
LDL [1]; [6]
  LDL-adsorbing ratio (%): 33.8%

## WAWRR (not fully specified) [peptide bonded to TG polystyrene resin]
LDL [1]; [3]
  LDL-adsorbing ratio (%): 62.2%

## LFLMRGGGGG
LDL [1]; [3]
  LDL-adsorbing ratio (%): 36.9%

## Example 2 Sample 9: pentapeptide N1-N5 = Y Y R W F, bonded to TG polystyrene resin (YYRWF; not fully specified; printed as Tyr Tyr Arg Trp Phe)
LDL [2]; [7]
  Stain: +

## Comparative Example 2 Sample 1: comparative pentapeptide N1-N5 = T H R Q R, bonded to TG polystyrene resin (THRQR; not fully specified; printed as Thr His Arg Gln Arg) [reference compound]
LDL [2]; [7]
  Stain: -

## Example 2 Sample 10: pentapeptide N1-N5 = L W K S F, bonded to TG polystyrene resin (LWKSF; not fully specified; printed as Leu Trp Lys Ser Phe)
LDL [2]; [7]
  Stain: +

## WFWK (not fully specified) [peptide bonded to TG polystyrene resin]
LDL [1]; [4]
  LDL-adsorbing ratio (%): 33.0%

## Comparative Example 2 Sample 10: comparative pentapeptide N1-N5 = F I I M E, bonded to TG polystyrene resin (FIIME; not fully specified; printed as Phe Ile Ile Met Glu) [reference compound]
LDL [2]; [7]
  Stain: -

## Example 2 Sample 11: pentapeptide N1-N5 = F F W R G, bonded to TG polystyrene resin (FFWRG; not fully specified; printed as Phe Phe Trp Arg Gly)
LDL [2]; [7]
  Stain: +

## Example 2 Sample 8: pentapeptide N1-N5 = L K W F Q, bonded to TG polystyrene resin (LKWFQ; not fully specified; printed as Leu Lys Trp Phe Gln)
LDL [2]; [7]
  Stain: +

## Example 2 Sample 14: pentapeptide N1-N5 = W L M W R, bonded to TG polystyrene resin (WLMWR; not fully specified; printed as Trp Leu Met Trp Arg)
LDL [2]; [7]
  Stain: +

## Example 2 Sample 7: pentapeptide N1-N5 = W R Y D R, bonded to TG polystyrene resin (WRYDR; not fully specified; printed as Trp Arg Tyr Asp Arg)
LDL [2]; [7]
  Stain: +

## WFWR (not fully specified) [peptide bonded to TG polystyrene resin]
LDL [1]; [4]
  LDL-adsorbing ratio (%): 35.0%

## Example 1 Sample 1: pentapeptide N1-N5 = R F Y Y M, bonded to TG polystyrene resin (RFYYM; not fully specified; printed as Arg Phe Tyr Tyr Met)
LDL [2]; [8]
  Stain: +

## WWK
LDL [1]; [4]
  LDL-adsorbing ratio (%): 25.0%

## WAAAAR (not fully specified) [peptide bonded to TG polystyrene resin]
LDL [1]; [5]
  LDL-adsorbing ratio (%): 26.3%

## WAAAAAR (not fully specified) [peptide bonded to TG polystyrene resin]
LDL [1]; [5]
  LDL-adsorbing ratio (%): 23.7%

## Comparative Example 1 Sample 5: comparative pentapeptide N1-N5 = M L T V R, bonded to TG polystyrene resin (MLTVR; not fully specified; printed as Met Leu Thr Val Arg) [reference compound]
LDL [2]; [8]
  Stain: -

From patent US6127339A, “Peptide for binding thereto a low density lipoprotein” (Asahi Kasei Kogyo Kabushiki Kaisha, priority 1995, dated 2000)
